For this experiment, the system named is P388/ADR leukemia. Briefly: NCI tumour cell line growth inhibition, 48 h.

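How tested: cells in 96-well plates exposed to compound for 48 hours at five concentrations. TGI marks complete inhibition of growth.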

The compound `N/C(=N\N=C/c1ccc(O)c(O)c1O)NO` registered a TGI of 41.6 µM.
`C=C1C(=O)[C@@]23CC[C@H]4[C@@](C)(CCC[C@@]4(C)C(=O)OC)[C@@H]2CC[C@]1(O)C3` displayed a TGI of 0.224 µM.

The values are drawn from PubChem BioAssay (NCI).
